Laboratory results taken from patent US9708314B2, “Heterocyclic amide compound” (NISSAN CHEMICAL INDUSTRIES, LTD., priority 2013, dated 2017).

Columns and labels:
Type in all cases: in vivo
[1] = test system: Echinochloa crus-galli var. crus-galli; assay: Test Example 3: herbicidal effect by application to foliage (Wagner pot, water depth 0.1-0.5 cm); conditions: Nineteenth Table; application herbicide amount 320 g/ha
Procedure, shortened: (§1)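 Seeds were sown in alluvial soil in Wagner pots, grown for 14 days at 25–30 °C, then sprayed uniformly on foliage with the emulsified compound diluted to a given rate per hectare. Injury was graded three weeks after treatment from 0 (≤5%) to 5 (≥90%).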

Leptochloa chinensis = assay: as above; conditions: Nineteenth Table; application herbicide amount 320 g/ha
Procedure, shortened: as §1

Cyperus difformis = assay: as above; conditions: Nineteenth Table; application herbicide amount 320 g/ha
Procedure, shortened: as §1

Scirpus juncoides = assay: Test Example 1: herbicidal activity, application before weed generation in submerged conditions; conditions: Application herbicide amount 320 g/ha; Seventeenth Table
Procedure, shortened: (§2)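 Water-diluted emulsion formulation is applied onto flood water (4 cm deep) covering alluvial soil on the day weed seeds are sown, after transplanting 2.5 leaf stage rice. Rates are expressed per hectare. Injury or control is graded 0–5 three weeks later.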

Monochoria vaginalis = assay: as above; conditions: Application herbicide amount 320 g/ha; Seventeenth Table
Procedure, shortened: as §2

[2] = test system: Echinochloa oryzacola Vasing.; assay: as above; conditions: Application herbicide amount 320 g/ha; Seventeenth Table
Procedure, shortened: as §2

Digitaria ciliaris = assay: Test Example 4: herbicidal effect by application to foliage (diluvial soil, plastic box); conditions: application to foliage, application herbicide amount 320 g/ha
Procedure, shortened: (§3)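 Greenhouse plants (25° C. to 30° C., 14 d, diluvial soil) receive a foliar spray of water-diluted emulsifiable formulation at defined g/ha. Grading after 3 weeks uses a six-step herbicidal-ratio scale, with 4 covering 70% to <90% and 1 covering 5% to <20%.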

Galium spurium = assay: as above; conditions: application to foliage, application herbicide amount 320 g/ha
Procedure, shortened: as §3

[3] = test system: directly sowed Oryza sativa; assay: Test Example 3: effect on crop by application to foliage (Wagner pot, water depth 0.1-0.5 cm); conditions: Nineteenth Table; application herbicide amount 320 g/ha
Procedure, shortened: as §1

`Cc1nnc(NC(=O)c2ccc(C(F)(F)F)n3c(COCC(F)(F)F)nnc23)o1` [1-020] was tested, and the “H (Echinochloa crus-galli var. crus-galli) herbicidal ratio grade” value [1] was 5 (Herbicidal ratio of 90% or more (almost completely withered)), the “D (Leptochloa chinensis) herbicidal ratio grade” value (Leptochloa chinensis) was 4 (Herbicidal ratio of 70% or more and less than 90%) and the “E (Cyperus difformis) herbicidal ratio grade” value (Cyperus difformis) was 4 (Herbicidal ratio of 70% or more and less than 90%). For the same molecule, the “B: Scirpus juncoides (herbicidal effect grade)” value (“B: Scirpus juncoides” below) (Scirpus juncoides) was 3 (Herbicidal ratio of 40% or more and less than 70%), the “C: Monochoria vaginalis (herbicidal effect grade)” value (shortened to “C: Monochoria vaginalis”) (Monochoria vaginalis) was 2 (Herbicidal ratio of 20% or more and less than 40%) and the “A: Echinochloa oryzicola Vasing. (herbicidal effect grade)” value [2] was 4 (Herbicidal ratio of 70% or more and less than 90%). The “F (Digitaria ciliaris) herbicidal effect” value (Digitaria ciliaris) was 4 (Herbicidal ratio of 70% or more and less than 90%), the “Q (Galium spurium) herbicidal effect” value (Galium spurium) was 3 (Herbicidal ratio of 40% or more and less than 70%) and the “b (directly sowed Oryza sativa) effect on crop grade” value [3] was 2 (Herbicidal ratio of 20% or more and less than 40%).
In the case of `CCC(C)c1nnc2c(C(=O)Nc3nnc(C)o3)ccc(C(F)(F)F)n12` (stereo not drawn) [1-021], the “H (Echinochloa crus-galli var. crus-galli) herbicidal ratio grade” value [1] is reported as 5 (Herbicidal ratio of 90% or more (almost completely withered)), the “D (Leptochloa chinensis) herbicidal ratio grade” value (Leptochloa chinensis) is reported as 5 (Herbicidal ratio of 90% or more (almost completely withered)) and the “E (Cyperus difformis) herbicidal ratio grade” value (Cyperus difformis) is reported as 5 (Herbicidal ratio of 90% or more (almost completely withered)). The “B: Scirpus juncoides” value (Scirpus juncoides) was 4 (Herbicidal ratio of 70% or more and less than 90%), the “C: Monochoria vaginalis” value (Monochoria vaginalis) was 4 (Herbicidal ratio of 70% or more and less than 90%) and the “A: Echinochloa oryzicola Vasing. (herbicidal effect grade)” value [2] was 5 (Herbicidal ratio of 90% or more (almost completely withered)). The “F (Digitaria ciliaris) herbicidal effect” value (Digitaria ciliaris) was 4 (Herbicidal ratio of 70% or more and less than 90%), the “Q (Galium spurium) herbicidal effect” value (Galium spurium) was 3 (Herbicidal ratio of 40% or more and less than 70%) and the “b (directly sowed Oryza sativa) effect on crop grade” value [3] was 3 (Herbicidal ratio of 40% or more and less than 70%).
For `Cc1cc(-c2nnc3c(C(=O)Nc4nnc(C)o4)ccc(C(F)(F)F)n23)no1` [1-022], the “H (Echinochloa crus-galli var. crus-galli) herbicidal ratio grade” value [1] was 5 (Herbicidal ratio of 90% or more (almost completely withered)), the “D (Leptochloa chinensis) herbicidal ratio grade” value (Leptochloa chinensis) was 5 (Herbicidal ratio of 90% or more (almost completely withered)) and the “E (Cyperus difformis) herbicidal ratio grade” value (Cyperus difformis) was 4 (Herbicidal ratio of 70% or more and less than 90%). For the same molecule, the “B: Scirpus juncoides” value (Scirpus juncoides) was 2 (Herbicidal ratio of 20% or more and less than 40%), the “C: Monochoria vaginalis” value (Monochoria vaginalis) was 0 (Herbicidal ratio of 5% or less (almost no effect)) and the “A: Echinochloa oryzicola Vasing. (herbicidal effect grade)” value [2] was 2 (Herbicidal ratio of 20% or more and less than 40%). The “F (Digitaria ciliaris) herbicidal effect” value (Digitaria ciliaris) was 4 (Herbicidal ratio of 70% or more and less than 90%), the “Q (Galium spurium) herbicidal effect” value (Galium spurium) was 2 (Herbicidal ratio of 20% or more and less than 40%) and the “b (directly sowed Oryza sativa) effect on crop grade” value [3] was 2 (Herbicidal ratio of 20% or more and less than 40%).
In the case of `CCCc1nnc2c(C(=O)Nc3nnc(C)o3)ccc(C(F)(F)F)n12` [1-024], the “H (Echinochloa crus-galli var. crus-galli) herbicidal ratio grade” value [1] is reported as 5 (Herbicidal ratio of 90% or more (almost completely withered)), the “D (Leptochloa chinensis) herbicidal ratio grade” value (Leptochloa chinensis) is reported as 4 (Herbicidal ratio of 70% or more and less than 90%) and the “E (Cyperus difformis) herbicidal ratio grade” value (Cyperus difformis) is reported as 4 (Herbicidal ratio of 70% or more and less than 90%). For the same molecule, the “B: Scirpus juncoides” value (Scirpus juncoides) was 2 (Herbicidal ratio of 20% or more and less than 40%), the “C: Monochoria vaginalis” value (Monochoria vaginalis) was 0 (Herbicidal ratio of 5% or less (almost no effect)) and the “A: Echinochloa oryzicola Vasing. (herbicidal effect grade)” value [2] was 5 (Herbicidal ratio of 90% or more (almost completely withered)). For the same molecule, the “F (Digitaria ciliaris) herbicidal effect” value (Digitaria ciliaris) was 4 (Herbicidal ratio of 70% or more and less than 90%), the “Q (Galium spurium) herbicidal effect” value (Galium spurium) was 3 (Herbicidal ratio of 40% or more and less than 70%) and the “b (directly sowed Oryza sativa) effect on crop grade” value [3] was 2 (Herbicidal ratio of 20% or more and less than 40%).
With `Cc1nnc(NC(=O)c2ccc(C(F)(F)F)n3c(C4CCCC4)nnc23)o1` [1-026] the “H (Echinochloa crus-galli var. crus-galli) herbicidal ratio grade” value [1] was 5 (Herbicidal ratio of 90% or more (almost completely withered)), the “D (Leptochloa chinensis) herbicidal ratio grade” value (Leptochloa chinensis) was 4 (Herbicidal ratio of 70% or more and less than 90%) and the “E (Cyperus difformis) herbicidal ratio grade” value (Cyperus difformis) was 4 (Herbicidal ratio of 70% or more and less than 90%). The “B: Scirpus juncoides” value (Scirpus juncoides) was 4 (Herbicidal ratio of 70% or more and less than 90%), the “C: Monochoria vaginalis” value (Monochoria vaginalis) was 4 (Herbicidal ratio of 70% or more and less than 90%) and the “A: Echinochloa oryzicola Vasing. (herbicidal effect grade)” value [2] was 5 (Herbicidal ratio of 90% or more (almost completely withered)). For the same molecule, the “F (Digitaria ciliaris) herbicidal effect” value (Digitaria ciliaris) was 3 (Herbicidal ratio of 40% or more and less than 70%), the “Q (Galium spurium) herbicidal effect” value (Galium spurium) was 2 (Herbicidal ratio of 20% or more and less than 40%) and the “b (directly sowed Oryza sativa) effect on crop grade” value [3] was 4 (Herbicidal ratio of 70% or more and less than 90%).
In the case of `CCOCc1nnc2c(C(=O)Nc3nnc(C)o3)ccc(C(F)(F)F)n12` [1-027], the “H (Echinochloa crus-galli var. crus-galli) herbicidal ratio grade” value [1] is reported as 5 (Herbicidal ratio of 90% or more (almost completely withered)), the “D (Leptochloa chinensis) herbicidal ratio grade” value (Leptochloa chinensis) is reported as 5 (Herbicidal ratio of 90% or more (almost completely withered)) and the “E (Cyperus difformis) herbicidal ratio grade” value (Cyperus difformis) is reported as 5 (Herbicidal ratio of 90% or more (almost completely withered)). For the same molecule, the “B: Scirpus juncoides” value (Scirpus juncoides) was 3 (Herbicidal ratio of 40% or more and less than 70%), the “C: Monochoria vaginalis” value (Monochoria vaginalis) was 4 (Herbicidal ratio of 70% or more and less than 90%) and the “A: Echinochloa oryzicola Vasing. (herbicidal effect grade)” value [2] was 5 (Herbicidal ratio of 90% or more (almost completely withered)). The “F (Digitaria ciliaris) herbicidal effect” value (Digitaria ciliaris) was 5 (Herbicidal ratio of 90% or more (almost completely withered)), the “Q (Galium spurium) herbicidal effect” value (Galium spurium) was 3 (Herbicidal ratio of 40% or more and less than 70%) and the “b (directly sowed Oryza sativa) effect on crop grade” value [3] was 3 (Herbicidal ratio of 40% or more and less than 70%).
`Cc1nnc(NC(=O)c2ccc(C(F)(F)F)n3c(C4=NOC(C)(C)C4)nnc23)o1` [1-029] was tested, and the “H (Echinochloa crus-galli var. crus-galli) herbicidal ratio grade” value [1] was 4 (Herbicidal ratio of 70% or more and less than 90%), the “D (Leptochloa chinensis) herbicidal ratio grade” value (Leptochloa chinensis) was 5 (Herbicidal ratio of 90% or more (almost completely withered)) and the “E (Cyperus difformis) herbicidal ratio grade” value (Cyperus difformis) was 4 (Herbicidal ratio of 70% or more and less than 90%). For the same molecule, the “B: Scirpus juncoides” value (Scirpus juncoides) was 3 (Herbicidal ratio of 40% or more and less than 70%), the “C: Monochoria vaginalis” value (Monochoria vaginalis) was 4 (Herbicidal ratio of 70% or more and less than 90%) and the “A: Echinochloa oryzicola Vasing. (herbicidal effect grade)” value [2] was 5 (Herbicidal ratio of 90% or more (almost completely withered)). The “F (Digitaria ciliaris) herbicidal effect” value (Digitaria ciliaris) was 5 (Herbicidal ratio of 90% or more (almost completely withered)), the “Q (Galium spurium) herbicidal effect” value (Galium spurium) was 0 (Herbicidal ratio of 5% or less (almost no effect)) and the “b (directly sowed Oryza sativa) effect on crop grade” value [3] was 4 (Herbicidal ratio of 70% or more and less than 90%).
`CSCc1nnc2c(C(=O)Nc3nnc(C)o3)ccc(C(F)(F)F)n12` [1-030] was tested, and the “H (Echinochloa crus-galli var. crus-galli) herbicidal ratio grade” value [1] was 5 (Herbicidal ratio of 90% or more (almost completely withered)), the “D (Leptochloa chinensis) herbicidal ratio grade” value (Leptochloa chinensis) was 5 (Herbicidal ratio of 90% or more (almost completely withered)) and the “E (Cyperus difformis) herbicidal ratio grade” value (Cyperus difformis) was 5 (Herbicidal ratio of 90% or more (almost completely withered)). For the same molecule, the “B: Scirpus juncoides” value (Scirpus juncoides) was 3 (Herbicidal ratio of 40% or more and less than 70%), the “C: Monochoria vaginalis” value (Monochoria vaginalis) was 3 (Herbicidal ratio of 40% or more and less than 70%) and the “A: Echinochloa oryzicola Vasing. (herbicidal effect grade)” value [2] was 5 (Herbicidal ratio of 90% or more (almost completely withered)). For the same molecule, the “F (Digitaria ciliaris) herbicidal effect” value (Digitaria ciliaris) was 5 (Herbicidal ratio of 90% or more (almost completely withered)), the “Q (Galium spurium) herbicidal effect” value (Galium spurium) was 4 (Herbicidal ratio of 70% or more and less than 90%) and the “b (directly sowed Oryza sativa) effect on crop grade” value [3] was 4 (Herbicidal ratio of 70% or more and less than 90%).
`Cc1nnc(NC(=O)c2ccc(C(F)(F)F)n3c(CSCC(F)(F)F)nnc23)o1` [1-031] was tested, and the “H (Echinochloa crus-galli var. crus-galli) herbicidal ratio grade” value [1] was 5 (Herbicidal ratio of 90% or more (almost completely withered)), the “D (Leptochloa chinensis) herbicidal ratio grade” value (Leptochloa chinensis) was 4 (Herbicidal ratio of 70% or more and less than 90%) and the “E (Cyperus difformis) herbicidal ratio grade” value (Cyperus difformis) was 3 (Herbicidal ratio of 40% or more and less than 70%). For the same molecule, the “B: Scirpus juncoides” value (Scirpus juncoides) was 3 (Herbicidal ratio of 40% or more and less than 70%), the “C: Monochoria vaginalis” value (Monochoria vaginalis) was 3 (Herbicidal ratio of 40% or more and less than 70%) and the “A: Echinochloa oryzicola Vasing. (herbicidal effect grade)” value [2] was 4 (Herbicidal ratio of 70% or more and less than 90%). For the same molecule, the “F (Digitaria ciliaris) herbicidal effect” value (Digitaria ciliaris) was 4 (Herbicidal ratio of 70% or more and less than 90%), the “Q (Galium spurium) herbicidal effect” value (Galium spurium) was 3 (Herbicidal ratio of 40% or more and less than 70%) and the “b (directly sowed Oryza sativa) effect on crop grade” value [3] was 2 (Herbicidal ratio of 20% or more and less than 40%).
`CCSc1nnc2c(C(=O)Nc3nnc(C)o3)ccc(C(F)(F)F)n12` [1-032] was tested, and the “H (Echinochloa crus-galli var. crus-galli) herbicidal ratio grade” value [1] was 5 (Herbicidal ratio of 90% or more (almost completely withered)), the “D (Leptochloa chinensis) herbicidal ratio grade” value (Leptochloa chinensis) was 5 (Herbicidal ratio of 90% or more (almost completely withered)) and the “E (Cyperus difformis) herbicidal ratio grade” value (Cyperus difformis) was 5 (Herbicidal ratio of 90% or more (almost completely withered)). The “B: Scirpus juncoides” value (Scirpus juncoides) was 3 (Herbicidal ratio of 40% or more and less than 70%), the “C: Monochoria vaginalis” value (Monochoria vaginalis) was 2 (Herbicidal ratio of 20% or more and less than 40%) and the “A: Echinochloa oryzicola Vasing. (herbicidal effect grade)” value [2] was 5 (Herbicidal ratio of 90% or more (almost completely withered)). The “F (Digitaria ciliaris) herbicidal effect” value (Digitaria ciliaris) was 5 (Herbicidal ratio of 90% or more (almost completely withered)), the “Q (Galium spurium) herbicidal effect” value (Galium spurium) was 2 (Herbicidal ratio of 20% or more and less than 40%) and the “b (directly sowed Oryza sativa) effect on crop grade” value [3] was 2 (Herbicidal ratio of 20% or more and less than 40%).
